From patent US20130035326A1 (AMBIT BIOSCIENCES CORPORATION, priority 2009, published 2013)

Experiments:
KIT kinase = target: T1, KIT kinase (Homo sapiens, UniProt P10721); experiment: Competition binding assay, KIT Kd
T1 construct: made in house; host or cells: T7 phage display or HEK-293 cells
In short: (§1)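 Readout: qPCR of kinase eluted from ligand-coated beads. T7 phage-fused or HEK-293-expressed DNA-tagged kinase, 1 h RT equilibration with compound; Kd from 11-pt 3-fold series.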

MV4-11 cells = experiment: MV4-11 cell proliferation assay (Alamar Blue); type: cell-based; settings: 3 days incubation
In short: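 Flt3-ITD MV4-11 cells were serum-starved overnight in Iscove's with 0.5% FBS, then given compound at 9 half-log concentrations (0.5% DMSO) for 3 days at 37° C. Alamar Blue reduction was read after 3 h by fluorescence (560/590 nm). IC50 is the mean of duplicates versus negative control.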

FLT3 kinase = target: T2, FLT3 kinase (Homo sapiens, UniProt P36888); experiment: Competition binding assay, FLT3 Kd
T2 construct: made in house; host or cells: T7 phage display or HEK-293 cells
T2 sequence (P36888 27-993): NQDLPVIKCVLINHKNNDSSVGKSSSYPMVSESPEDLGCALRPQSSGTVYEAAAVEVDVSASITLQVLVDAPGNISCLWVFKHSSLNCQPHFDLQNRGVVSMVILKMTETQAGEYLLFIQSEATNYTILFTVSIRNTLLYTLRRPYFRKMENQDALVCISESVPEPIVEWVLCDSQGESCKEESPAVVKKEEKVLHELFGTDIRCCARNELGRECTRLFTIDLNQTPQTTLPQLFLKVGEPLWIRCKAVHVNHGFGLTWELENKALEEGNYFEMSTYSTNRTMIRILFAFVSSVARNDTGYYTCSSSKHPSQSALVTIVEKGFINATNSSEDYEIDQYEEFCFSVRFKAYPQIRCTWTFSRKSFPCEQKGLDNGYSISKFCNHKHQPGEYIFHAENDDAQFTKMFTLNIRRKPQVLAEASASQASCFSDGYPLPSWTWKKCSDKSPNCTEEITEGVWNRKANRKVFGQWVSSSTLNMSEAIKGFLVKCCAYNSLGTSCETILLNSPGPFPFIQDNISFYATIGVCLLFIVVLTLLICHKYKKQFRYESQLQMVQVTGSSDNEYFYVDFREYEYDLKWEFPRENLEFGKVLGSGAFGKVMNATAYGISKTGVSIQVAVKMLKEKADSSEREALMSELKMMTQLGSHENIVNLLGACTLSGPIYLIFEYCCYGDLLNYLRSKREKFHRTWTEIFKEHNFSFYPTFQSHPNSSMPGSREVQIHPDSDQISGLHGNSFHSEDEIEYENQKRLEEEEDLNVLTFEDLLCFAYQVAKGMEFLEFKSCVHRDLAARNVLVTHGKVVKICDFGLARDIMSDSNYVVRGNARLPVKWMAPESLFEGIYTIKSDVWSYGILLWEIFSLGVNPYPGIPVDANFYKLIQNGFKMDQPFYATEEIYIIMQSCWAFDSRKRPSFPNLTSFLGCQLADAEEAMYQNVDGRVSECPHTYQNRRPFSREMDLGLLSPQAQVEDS
In short: as §1

CSF-1R kinase = target: T3, CSF-1R kinase (Homo sapiens, UniProt P07333); experiment: Competition binding assay, CSF-1R Kd
T3 construct: made in house; host or cells: T7 phage display or HEK-293 cells
In short: as §1

[1] = target: kinase panel containing either 359 or 386 distinct kinases; experiment: Selectivity score S10 from competition binding against a panel of kinases; settings: compounds at 10 μM; for Kinase specificty: S(10)-386 panel: panel of 386 distinct kinases; for Kinase specificty: S(10)-359 panel: panel of 359 distinct kinases
Protocol: Competition binding assays used herein were developed, validated and performed as described in Fabian et al., Nature Biotechnology 2005, 23,329-336. Kinases were produced as fusions to T7 phage (See, Fabian et al. or WO04/015142) or alternatively, the kinases were expressed in HEK-293 cells and subsequently tagged with DNA for PCR detection (See, WO08/005,310). For the binding assays, streptavidin-coated magnetic beads were treated with biotinylated affinity ligands for 30 min at room temperature to generate affinity resins. The liganded beads were blocked with excess biotin and washed with blocking buffer (SeaBlock (Pierce), 1% BSA, 0.05% Tween 20, 1 mM DTT) to remove unbound ligand and to reduce non-specific binding. Binding reactions were assembled by combining kinase, liganded affinity beads, and test compounds in 1× binding buffer (20% SeaBlock, 0.17×PBS, 0.05% Tween 20, 6 mM DTT). Test compounds were prepared as 100× stocks in DMSO and diluted into the aqueous environment. Kds were determined using an eleven point threefold serial dilutions. DMSO or control compounds were was added to control assays lacking a test compound. Primary screen assays were performed in polypropylene 384-well plates in a final volume of 20-40 μL, while Kd determinations were performed in polystyrene 96-well plates in a final volume of 135 μL. The assay plates were incubated at room temperature with shaking for 1 hour to allow the binding reactions to reach equilibrium, and the affinity beads were washed extensively with wash buffer (1×PBS, 0.05% Tween 20) to remove unbound protein. The beads were then resuspended in elution buffer (1×PBS, 0.05% Tween 20, 0.5 μM non-biotinylated affinity ligand) and incubated at room temperature with shaking for 30 min. The kinase concentration in the eluates was measured by quantitative PCR.
A selectivity score (S10) is a quantitative measure of selectivity of a compound against a panel of kinases. An S10 was calculated for a compound by dividing the number of kinases found to have a percent of control (DMSO) less than 10 by the total number of distinct kinases tested (excluding mutant variants). Percent of control (POC) is calculated by subtracting the signal of the control compound (POC=0) from the signal of the test compound and dividing the outcome by the signal of DMSO (POC=100) minus the signal of the control compound. For the compounds disclosed herein, S10 scores were obtained by testing the compounds at 10 μM concentration in a kinase panel containing either 359 or 386 distinct kinases.

T1 sequence (P10721 26-976): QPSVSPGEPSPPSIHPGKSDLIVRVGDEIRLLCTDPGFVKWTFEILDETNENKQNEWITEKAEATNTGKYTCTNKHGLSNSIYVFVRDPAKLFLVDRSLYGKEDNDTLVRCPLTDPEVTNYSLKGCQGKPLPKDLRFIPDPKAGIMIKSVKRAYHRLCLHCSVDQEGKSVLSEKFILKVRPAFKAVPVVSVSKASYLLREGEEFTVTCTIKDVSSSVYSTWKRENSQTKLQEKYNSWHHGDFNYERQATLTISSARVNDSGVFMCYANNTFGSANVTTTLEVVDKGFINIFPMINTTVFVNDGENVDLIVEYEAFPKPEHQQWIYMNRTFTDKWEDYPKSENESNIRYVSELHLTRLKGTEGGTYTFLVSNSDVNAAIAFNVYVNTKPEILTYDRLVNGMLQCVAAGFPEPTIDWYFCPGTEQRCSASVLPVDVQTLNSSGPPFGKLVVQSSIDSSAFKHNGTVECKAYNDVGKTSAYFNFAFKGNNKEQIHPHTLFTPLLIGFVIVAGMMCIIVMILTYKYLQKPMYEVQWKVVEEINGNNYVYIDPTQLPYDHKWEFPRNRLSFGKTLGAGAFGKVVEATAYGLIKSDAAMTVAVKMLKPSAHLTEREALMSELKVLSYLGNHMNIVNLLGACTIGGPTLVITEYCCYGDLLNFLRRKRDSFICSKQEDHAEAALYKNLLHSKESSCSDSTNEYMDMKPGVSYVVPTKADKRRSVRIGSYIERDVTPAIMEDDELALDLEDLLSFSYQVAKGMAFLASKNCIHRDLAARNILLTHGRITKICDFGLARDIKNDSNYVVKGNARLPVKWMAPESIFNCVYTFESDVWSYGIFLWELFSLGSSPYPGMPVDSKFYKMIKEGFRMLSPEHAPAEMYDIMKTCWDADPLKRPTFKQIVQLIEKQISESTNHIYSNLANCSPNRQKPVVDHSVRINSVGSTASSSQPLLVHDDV
T3 sequence (P07333 20-972): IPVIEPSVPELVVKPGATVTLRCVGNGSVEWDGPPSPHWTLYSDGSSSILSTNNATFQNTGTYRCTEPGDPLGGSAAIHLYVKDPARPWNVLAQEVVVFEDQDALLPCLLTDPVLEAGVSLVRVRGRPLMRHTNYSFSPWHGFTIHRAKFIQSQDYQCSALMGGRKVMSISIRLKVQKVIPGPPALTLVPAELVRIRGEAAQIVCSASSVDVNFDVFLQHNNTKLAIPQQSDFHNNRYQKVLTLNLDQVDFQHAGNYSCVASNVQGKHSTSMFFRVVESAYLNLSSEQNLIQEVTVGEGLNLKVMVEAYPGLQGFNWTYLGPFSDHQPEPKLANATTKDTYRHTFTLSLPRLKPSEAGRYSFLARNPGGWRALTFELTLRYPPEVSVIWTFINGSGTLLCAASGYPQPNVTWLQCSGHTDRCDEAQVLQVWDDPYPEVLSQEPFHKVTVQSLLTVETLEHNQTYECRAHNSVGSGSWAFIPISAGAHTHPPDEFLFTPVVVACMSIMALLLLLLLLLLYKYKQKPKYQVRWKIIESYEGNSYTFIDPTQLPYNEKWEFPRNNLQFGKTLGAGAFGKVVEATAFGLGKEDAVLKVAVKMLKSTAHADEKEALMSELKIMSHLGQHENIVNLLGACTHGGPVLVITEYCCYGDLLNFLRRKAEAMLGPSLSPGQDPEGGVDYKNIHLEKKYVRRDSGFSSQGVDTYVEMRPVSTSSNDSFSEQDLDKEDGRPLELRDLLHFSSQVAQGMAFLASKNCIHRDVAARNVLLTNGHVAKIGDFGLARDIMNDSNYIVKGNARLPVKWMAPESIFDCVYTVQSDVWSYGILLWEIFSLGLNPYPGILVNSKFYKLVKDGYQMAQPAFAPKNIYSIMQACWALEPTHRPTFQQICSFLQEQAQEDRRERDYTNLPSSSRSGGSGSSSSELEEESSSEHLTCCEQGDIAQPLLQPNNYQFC

Compound | Kd (KIT kinase) [nM] | Kd (FLT3 kinase) [nM] | Kd (CSF-1R kinase) [nM] | Kinase specificty: S(10)-386 panel [1] | IC50 (MV4-11 cells; Homo sapiens, MV4-11, 72 h) [nM] | Kinase specificty: S(10)-359 panel [1] | IC50 (MV4-11 cells) [nM]
2-(4-(6-aminopyridin-3-yl)phenyl)-N-(3-tert-butyl-1H-pyrazol-1-yl)acetamide and 2-(4-(6-aminopyridin-3-yl)phenyl)-N-(5-tert-butyl-1H-pyrazol-1-yl)acetamide [Example 91] | 1 to 10 | ≤ 1 | 10 to 100 | A (A≦0.1) | – | – | 1 to 10
CC(C)(C)c1cc(NC(=O)Nc2ccc(-c3ccc(N)nc3)cc2)no1 [Example 1, 1-(4-(6-aminopyridin-3-yl)phenyl)-3-(5-tert-butylisoxazol-3-yl)urea] | ≤ 1 | ≤ 1 | ≤ 10 | A (A≦0.1) | ≤ 1 | A (A≦0.1) | –
CC(C)(C)c1cc(NC(=O)Nc2ccc(-c3cnc4c(c3)OCC(=O)N4)cc2)no1 [Example 3, 1-(5-tert-butylisoxazol-3-yl)-3-(4-(3-oxo-3,4-dihydro-2H-pyrido[3,2-b][1,4]oxazin-7-yl)phenyl)urea] | ≤ 1 | ≤ 1 | ≤ 10 | – | ≤ 1 | A (A≦0.1) | –
CC(C)(C)c1cc(NC(=O)Nc2ccc(-c3cnc4c(c3)OCCN4)cc2)no1 [Example 4, 1-(5-tert-butylisoxazol-3-yl)-3-(4-(3,4-dihydro-2H-pyrido[3,2-b][1,4]oxazin-7-yl)phenyl)urea] | 1 to 10 | 1 to 10 | ≤ 10 | – | 1 to 10 | B (0.1<B≦0.2 nM) | –
CC(C)(C)c1cc(NC(=O)Nc2ccc(-c3cnc4c(c3)OCC(CCO)N4)cc2)no1 (stereo not shown) [Example 5, 1-(5-tert-butylisoxazol-3-yl)-3-(4-(3-(2-hydroxyethyl)-3,4-dihydro-2H-pyrido[3,2-b][1,4]oxazin-7-yl)phenyl)urea] | 1 to 10 | ≤ 1 | ≤ 10 | – | ≤ 1 | B (0.1<B≦0.2 nM) | –
CC(C)(C)c1cc(NC(=O)Nc2ccc(-c3cnc(NCCN4CCOCC4)c(C#N)c3)cc2)no1 [Example 6, 1-(5-tert-butylisoxazol-3-yl)-3-(4-(5-cyano-6-(2-morpholinoethylamino)pyridin-3-yl)phenyl)urea] | 1 to 10 | 1 to 10 | 10 to 100 | – | 1 to 10 | A (A≦0.1) | –
CC(C)(C)c1cc(NC(=O)Nc2ccc(-c3ccc(NCCN4CCOCC4)nc3)cc2)no1 [Example 7, 1-(5-tert-butyl-isoxazol-3-yl)-3-{4-[6-(2-morpholin-4-yl-ethylamino)-pyridin-3-yl]-phenyl}urea] | ≤ 1 | ≤ 1 | ≤ 10 | – | 1 to 10 | A (A≦0.1) | –
CC(C)(C)c1cc(NC(=O)Nc2ccc(-c3cnc(NCCN4CCOCC4)nc3)cc2)no1 [Example 45, 1-(5-tert-butylisoxazol-3-yl)-3-{4-[2-(2-morpholin-4-yl-ethylamino)-pyrimidin-5-yl]phenyl}urea] | ≤ 1 | ≤ 1 | ≤ 10 | – | – | B (0.1<B≦0.2 nM) | –
COc1cc(-c2cnc(N)nc2)ccc1NC(=O)Nc1cc(C(C)(C)C)on1 [Example 48, 1-[4-(2-aminopyrimidin-5-yl)-2-methoxy-phenyl]-3-(5-tert-butylisoxazol-3-yl)-urea] | 1 to 10 | 1 to 10 | ≤ 10 | – | – | A (A≦0.1) | –
CC(C)(C)c1cc(NC(=O)Nc2ccc(-c3cnc(CN4CCOCC4)nc3)cc2)no1 [Example 51, 1-(5-tert-butylisoxazol-3-yl)-3-(4-(2-(morpholinomethyl)pyrimidin-5-yl)phenyl)urea] | 1 to 10 | 10 to 100 | 100 to 500 | – | – | A (A≦0.1) | –
CC(C)(C)c1cc(NC(=O)C(O)c2ccc(-c3ccc(N)nc3)cc2)no1 (stereo not shown) [Example 182] | 1 to 10 | 1 to 10 | 10 to 100 | – | 1 to 10 | – | –

The next lines start with results.

Kd (KIT kinase) [nM] | Kd (FLT3 kinase) [nM] | Kd (CSF-1R kinase) [nM] | Kinase specificty: S(10)-386 panel [1] | IC50 (MV4-11 cells; Homo sapiens, MV4-11, 72 h) [nM] | Kinase specificty: S(10)-359 panel [1] | Compound | IC50 (MV4-11 cells) [nM]
1 to 10 | ≤ 1 | ≤ 10 | – | ≤ 1 | B (0.1<B≦0.2 nM) | CC(C)(C)c1cc(NC(=O)Nc2ccc(-c3cnc(N)c(C#N)c3)cc2)no1 [Example 2, 1-[4-(6-amino-5-cyanopyridin-3-yl)-phenyl]-3-(5-tert-butylisoxazol-3-yl)urea] | –
– | – | – | B (0.1<B≦0.2 nM) | – | – | CS(=O)(=O)O.Nc1ncc(-c2ccc(CC(=O)Nc3cc(C4(C(F)(F)F)CC4)on3)cc2)cc1F [Example 127] | –
– | – | – | A (A≦0.1) | – | – | CC(C)(C)c1cc(NC(=O)Cc2ccc(-c3ccc(N)nc3C(F)(F)F)cc2)no1.CS(=O)(=O)O [Example 129] | –
– | – | – | A (A≦0.1) | – | – | CS(=O)(=O)O.Cc1cc(-c2ccc(CC(=O)Nc3cc(C4(C(F)(F)F)CC4)on3)cc2)cnc1N [Example 130] | –
> 100 | 10 to 100 | > 100 | – | > 100 | – | CC(C)(C)c1cc(NC(=O)Cc2ccc(-c3ccc(N)nc3)c(C(F)(F)F)c2)no1 [Example 180] | –
10 to 100 | 1 to 10 | 10 to 100 | – | 1 to 10 | – | Cn1[nH]c2ncc(-c3ccc(CC(=O)Nc4cc(C(C)(C)C)on4)cc3)cc2c1=O [Example 181] | –
1 to 10 | ≤ 1 | ≤ 10 | – | ≤ 1 | – | CC(C)(C)c1cc(NC(=O)Cc2ccc(-c3cnc(N)cc3F)cc2)on1 [Example 183] | –
1 to 10 | ≤ 1 | ≤ 10 | – | ≤ 1 | – | CC(F)(F)C1(c2cc(NC(=O)Cc3ccc(-c4cnc(N)cc4F)cc3)no2)CC1 [Example 184] | –
≤ 1 | ≤ 1 | ≤ 10 | – | 1 to 10 | – | CC1(c2cc(NC(=O)Cc3ccc(-c4ccc(NCCS(C)(=O)=O)nc4)cc3)no2)CC1 [Example 185] | –
≤ 1 | ≤ 1 | ≤ 10 | – | ≤ 1 | – | CC(C)c1cc(NC(=O)Cc2ccc(-c3ccc(N)nc3)cc2)no1 [Example 186] | –
1 to 10 | 1 to 10 | 100 to 500 | – | 10 to 100 | – | CN1CC(=O)Nc2ncc(-c3ccc(CC(=O)Nc4cc(C(C)(C)C)on4)cc3)cc2C1 [Example 190] | –
